{"source": "patent US11254663B2", "about": "(BRISTOL-MYERS SQUIBB COMPANY, priority 2019, dated 2022)", "data": [{"target": "FXR (Homo sapiens (Human), UniProt Q96RI1)", "sequence (Q96RI1 262-486)": "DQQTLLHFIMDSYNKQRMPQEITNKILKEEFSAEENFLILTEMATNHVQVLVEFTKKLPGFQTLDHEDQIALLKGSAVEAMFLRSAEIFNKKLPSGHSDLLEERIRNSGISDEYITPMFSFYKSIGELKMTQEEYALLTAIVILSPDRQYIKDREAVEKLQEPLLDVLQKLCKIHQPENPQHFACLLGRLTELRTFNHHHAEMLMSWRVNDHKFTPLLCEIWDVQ", "experiment": "transient human FXR/Gal4-luciferase reporter assay", "assay_type": "cell-based", "settings": "not given", "summary_of_the_method": "(§1)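 HEK293 cells stably carrying a 5×Gal4 response element–firefly luciferase reporter were transiently transfected overnight with a Gal4 DBD–human FXR LBD fusion plasmid. Compound was added in DMSO and cells were incubated overnight at 37 °C, 5% CO2. Activity was read as Steady-Glo luminescence.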", "units": {"EC50": "nM"}, "values": [{"smiles": "CCOc1ncc(-c2cccc(N(CC34CCC(c5noc(C(C)(C)C)n5)(CC3)CC4)C(=O)[C@H]3C[C@@H](OC)C3)c2)cn1", "note": "[Example 511, (1S,3S)—N-((4-(5-(tert-butyl)-1,2,4-oxadiazol-3-yl)bicyclo[2.2.2]octan-1-yl)methyl)-N-(3-(2-ethoxypyrimidin-5-yl)phenyl)-3-methoxycyclobutane-1-carboxamide]", "EC50": 411}]}, {"target": "FXR (Homo sapiens (Human), UniProt Q96RI1)", "experiment": "transient human FXR/Gal4-luciferase reporter assay", "assay_type": "cell-based", "settings": "Gal4-hFXR fusion construct, HEK293 reporter cells; response relative to 8 μM GW-4064", "summary_of_the_method": "as §1", "units": {"EC50": "nM"}, "values": [{"smiles": "CCOc1ccc(-c2cccc(N(CC34CCC(c5nc(C(C)(C)C)no5)(CC3)CC4)C(=O)C34CC(F)(C3)C4)c2)cc1", "note": "[Example 359, N-((4-(3-(tert-butyl)-1,2,4-oxadiazol-5-yl)bicyclo[2.2.2]octan-1-yl)methyl)-N-(4′-ethoxy-[1,1′-biphenyl]-3-yl)-3-fluorobicyclo[1.1.1]pentane-1-carboxamide]", "EC50": 151}, {"smiles": "COc1ccc(-c2cccc(N(CC34CCC(c5ccc(C6(C#N)CC6)cc5)(CC3)OC4)C(=O)C34CC(F)(C3)C4)c2)cn1", "note": "[Example 350, N-((1-(4-(1-cyanocyclopropyl)phenyl)-2-oxabicyclo[2.2.2]octan-4-yl)methyl)-3-fluoro-N-(3-(6-methoxypyridin-3-yl)phenyl)bicyclo[1.1.1]pentane-1-carboxamide]", "EC50": 296}, {"smiles": "CC1(c2nc(C34CCC(CN(C(=O)C56CC(F)(C5)C6)c5cccc(-c6ccc(NS(=O)(=O)C7CC7)cc6)c5)(CC3)CC4)no2)CC1", "note": "[Example 397, N-(4′-(cyclopropanesulfonamido)-[1,1′-biphenyl]-3-yl)-3-fluoro-N-((4-(5-(1-methylcyclopropyl)-1,2,4-oxadiazol-3-yl)bicyclo[2.2.2]octan-1-yl)methyl) bicyclo[1.1.1]pentane-1-carboxamide]", "EC50": 183}, {"smiles": "O=C(N(CC12CCC(c3nc(C4CC4)no3)(CC1)CC2)c1cccc(-c2cccc(OC(F)(F)C(F)F)c2)c1)C12CC(F)(C1)C2", "note": "[Example 299, N-((4-(3-cyclopropyl-1,2,4-oxadiazol-5-yl)bicyclo[2.2.2]octan-1-yl)methyl)-3-fluoro-N-(3′-(1,1,2,2-tetrafluoroethoxy)-[1,1′-biphenyl]-3-yl)bicyclo[1.1.1]pentane-1-carboxamide]", "EC50": 660}, {"smiles": "N#CC1(c2ccc(-c3cccc(N(CC45CCC(c6noc(C7(F)CC7)n6)(CC4)CC5)C(=O)[C@H]4C[C@](O)(C(F)(F)F)C4)c3)cc2F)CC1", "note": "[Example 578, (cis)-N-(4′-(1-cyanocyclopropyl)-3′-fluoro-[1,1′-biphenyl]-3-yl)-N-((4-(5-(1-fluorocyclopropyl)-1,2,4-oxadiazol-3-yl)bicyclo[2.2.2]octan-1-yl)methyl)-3-hydroxy-3-(trifluoromethyl)cyclobutane-1-carboxamide]", "EC50": 92}, {"smiles": "CC(C)(C)c1nc(C23CCC(CN(C(=O)C45CC(F)(C4)C5)c4cccc(-c5ccc(NS(C)(=O)=O)cc5)c4)(CC2)CC3)no1", "note": "[Example 438, N-((4-(5-(tert-butyl)-1,2,4-oxadiazol-3-yl)bicyclo[2.2.2]octan-1-yl)methyl)-3-fluoro-N-(4′-(methylsulfonamido)-[1,1′-biphenyl]-3-yl)bicyclo[1.1.1]pentane-1-carboxamide]", "EC50": 46}, {"smiles": "O=C(N(CC12CCC(c3nc(C4CC4)no3)(CC1)CC2)c1cccc(-c2ccn3ccnc3c2)c1)C12CC(F)(C1)C2", "note": "[Example 288, N-((4-(3-cyclopropyl-1,2,4-oxadiazol-5-yl)bicyclo[2.2.2]octan-1-yl)methyl)-3-fluoro-N-(3-(imidazo[1,2-a]pyridin-7-yl)phenyl)bicyclo[1.1.1]pentane-1-carboxamide]", "EC50": 539}, {"smiles": "CC(C)Oc1ccc(-c2cccc(N(CC34CCC(c5cc(C(C)(F)F)on5)(CC3)CC4)C(=O)OC(C)(C)C(F)(F)F)c2)cc1", "note": "[Example 656, 1,1,1-trifluoro-2-methylpropan-2-yl ((4-(5-(1,1-difluoroethyl)isoxazol-3-yl)bicyclo[2.2.2]octan-1-yl)methyl)(4′-isopropoxy-[1,1′-biphenyl]-3-yl)carbamate]", "EC50": 1060}, {"smiles": "O=C(C1CC(F)(F)C1)N(CC12CCC(c3nc(C4CC4)no3)(CC1)CC2)c1cccc(-c2ccnc(OC3CC3)n2)c1", "note": "[Example 338, N-(3-(2-cyclopropoxypyrimidin-4-yl)phenyl)-N-((4-(3-cyclopropyl-1,2,4-oxadiazol-5-yl)bicyclo[2.2.2]octan-1-yl)methyl)-3,3-difluorocyclobutane-1-carboxamide]", "EC50": 1360}, {"smiles": "COCc1ccc(-c2cccc(N(CC34CCC(c5nc(C6CC6)no5)(CC3)CC4)C(=O)C34CC(F)(C3)C4)c2)cn1", "note": "[Example 274, N-((4-(3-cyclopropyl-1,2,4-oxadiazol-5-yl)bicyclo[2.2.2]octan-1-yl)methyl)-3-fluoro-N-(3-(6-(methoxymethyl)pyridin-3-yl)phenyl)bicyclo[1.1.1]pentane-1-carboxamide]", "EC50": 106}, {"smiles": "COc1ncc(-c2cccc(N(CC34CCC(c5nnc(C6CC6)o5)(CC3)CC4)C(=O)C34CC(F)(C3)C4)c2)cn1", "note": "[Example 341, N-((4-(5-cyclopropyl-1,3,4-oxadiazol-2-yl)bicyclo[2.2.2]octan-1-yl)methyl)-3-fluoro-N-(3-(2-methoxypyrimidin-5-yl)phenyl)bicyclo[1.1.1]pentane-1-carboxamide]", "EC50": 287}, {"smiles": "O=C(N(CC12CCC(c3nc(C4CC4)no3)(CC1)CC2)c1cccc(-c2nc(Cl)nn3cccc23)c1)C12CC(F)(C1)C2", "note": "[Example 315, N-(3-(2-chloropyrrolo[2,1-f][1,2,4]triazin-4-yl)phenyl)-N-((4-(3-cyclopropyl-1,2,4-oxadiazol-5-yl)bicyclo[2.2.2]octan-1-yl)methyl)-3-fluorobicyclo[1.1.1]pentane-1-carboxamide]", "EC50": 913}, {"smiles": "CCOc1ncc(-c2cccc(N(CC34CCC(c5nc(C6CC6)no5)(CC3)OC4)C(=O)C34CC(F)(C3)C4)c2)cn1", "note": "[Example 353, N-((1-(3-cyclopropyl-1,2,4-oxadiazol-5-yl)-2-oxabicyclo[2.2.2]octan-4-yl)methyl)-N-(3-(2-ethoxypyrimidin-5-yl)phenyl)-3-fluorobicyclo[1.1.1]pentane-1-carboxamide]", "EC50": 328}, {"smiles": "Cc1cn2cc(-c3cccc(N(CC45CCC(c6nc(C7CC7)no6)(CC4)CC5)C(=O)C45CC(F)(C4)C5)c3)cc(C)c2n1", "note": "[Example 322, N-((4-(3-cyclopropyl-1,2,4-oxadiazol-5-yl)bicyclo[2.2.2]octan-1-yl)methyl)-N-(3-(2,8-dimethylimidazo[1,2-a]pyridin-6-yl)phenyl)-3-fluorobicyclo[1.1.1]pentane-1-carboxamide]", "EC50": 270}, {"smiles": "CS(=O)(=O)Nc1ccc(-c2cccc(N(CC34CCC(c5nc(C6CC6)no5)(CC3)CC4)C(=O)C34CC(F)(C3)C4)c2)cc1", "note": "[Example 246, N-((4-(3-cyclopropyl-1,2,4-oxadiazol-5-yl)bicyclo[2.2.2]octan-1-yl)methyl)-3-fluoro-N-(4′-(methylsulfonamido)-[1,1′-biphenyl]-3-yl)bicyclo[1.1.1]pentane-1-carboxamide]", "EC50": 66}, {"smiles": "COc1cnc(-c2cccc(N(CC34CCC(c5nc(C(C)(C)C)no5)(CC3)CC4)C(=O)C34CC(F)(C3)C4)c2)nc1", "note": "[Example 369, N-((4-(3-(tert-butyl)-1,2,4-oxadiazol-5-yl)bicyclo[2.2.2]octan-1-yl)methyl)-3-fluoro-N-(3-(5-methoxypyrimidin-2-yl)phenyl)bicyclo[1.1.1]pentane-1-carboxamide]", "EC50": 68}, {"smiles": "CC(=O)Nc1cccc(-c2cccc(N(CC34CCC(c5nc(C6CC6)no5)(CC3)CC4)C(=O)C34CC(F)(C3)C4)c2)c1", "note": "[Example 254, N-(3′-acetamido-[1,1′-biphenyl]-3-yl)-N-((4-(3-cyclopropyl-1,2,4-oxadiazol-5-yl)bicyclo[2.2.2]octan-1-yl)methyl)-3-fluorobicyclo[1.1.1]pentane-1-carboxamide]", "EC50": 241}, {"smiles": "CC(C)(F)c1nc(C23CCC(CN(C(=O)OC4CCC(F)(F)CC4)c4cc(-c5ccc(OC(F)F)cc5)c(F)cn4)(CC2)CC3)no1", "note": "[Example 631, 4,4-difluorocyclohexyl (4-(4-(difluoromethoxy)phenyl)-5-fluoropyridin-2-yl) ((4-(5-(2-fluoropropan-2-yl)-1,2,4-oxadiazol-3-yl)bicyclo[2.2.2]octan-1-yl)methyl) carbamate]", "EC50": 117}, {"smiles": "COc1ccc(-c2cccc(N(CC34CCC(c5nc(C6CC6)no5)(CC3)CC4)C(=O)C34CC(F)(C3)C4)c2)cc1C#N", "note": "[Example 296, N-(3′-cyano-4′-methoxy-[1,1′-biphenyl]-3-yl)-N-((4-(3-cyclopropyl-1,2,4-oxadiazol-5-yl)bicyclo[2.2.2]octan-1-yl)methyl)-3-fluorobicyclo[1.1.1]pentane-1-carboxamide]", "EC50": 294}, {"smiles": "COc1ccc(-c2cccc(N(CC34CCC(c5nc(C6CC6)no5)(CC3)CC4)C(=O)C34CC(F)(C3)C4)c2)cc1", "note": "[Example 282, N-((4-(3-cyclopropyl-1,2,4-oxadiazol-5-yl)bicyclo[2.2.2]octan-1-yl)methyl)-3-fluoro-N-(4′-methoxy-[1,1′-biphenyl]-3-yl)bicyclo[1.1.1]pentane-1-carboxamide]", "EC50": 19}, {"smiles": "Cc1cnn2c(-c3cccc(N(CC45CCC(c6nc(C7CC7)no6)(CC4)CC5)C(=O)C45CC(F)(C4)C5)c3)cnc2c1", "note": "[Example 319, N-((4-(3-cyclopropyl-1,2,4-oxadiazol-5-yl)bicyclo[2.2.2]octan-1-yl)methyl)-3-fluoro-N-(3-(7-methylimidazo[1,2-b]pyridazin-3-yl)phenyl)bicyclo[1.1.1]pentane-1-carboxamide]", "EC50": 161}, {"smiles": "CC(C)(C)c1noc(C23CCC(CN(C(=O)C45CC(F)(C4)C5)c4cccc(-c5cnc(NS(C)(=O)=O)nc5)c4)(CC2)CC3)n1", "note": "[Example 367, N-((4-(3-(tert-butyl)-1,2,4-oxadiazol-5-yl)bicyclo[2.2.2]octan-1-yl)methyl)-3-fluoro-N-(3-(2-(methylsulfonamido)pyrimidin-5-yl)phenyl)bicyclo[1.1.1]pentane-1-carboxamide]", "EC50": 645}]}]}
